Reference: ChEMBL document CHEMBL3045120, “Synthesis, characterization, and evaluation of some novel 4(3H)-quinazolinone derivatives as anti-inflammatory and analgesic agents” (2013)

Key:
Type in all cases: functional
Design in all cases: scale not given: the % may be the effect or the level left
[1] = system: Rattus norvegicus; experiment: Analgesic activity inRattus norvegicus albino (rat) assessed as reduction of minimum electric shock-induced pain at 100 mg/kg after 1 hr relative to control
[2] = system: Rattus norvegicus; experiment: Analgesic activity inRattus norvegicus albino (rat) assessed as reduction of minimum electric shock-induced pain at 100 mg/kg after 2 hr relative to control
[3] = system: Rattus norvegicus; experiment: Anti-inflammatory activity inRattus norvegicus albino (rat) assessed as reduction of carrageenan-induced paw edema at 100 mg/kg, po administered 1 hr prior to carrageenan challenge measured after 3 hr by mercury plethysmographic analysis relative to control
[4] = system: Rattus norvegicus; experiment: Anti-inflammatory activity inRattus norvegicus albino (rat) assessed as reduction of cotton pellet-induced dry weight of granuloma at 100 mg/kg, po measured after 7 days relative to control
[5] = system: Rattus norvegicus; experiment: Analgesic activity inRattus norvegicus albino (rat) assessed as reduction of minimum electric shock-induced pain at 5 mg/kg after 1 hr relative to control
[6] = system: Rattus norvegicus; experiment: Analgesic activity inRattus norvegicus albino (rat) assessed as reduction of minimum electric shock-induced pain at 5 mg/kg after 2 hr relative to control
[7] = system: Rattus norvegicus; experiment: Anti-inflammatory activity inRattus norvegicus albino (rat) assessed as reduction of carrageenan-induced paw edema at 5 mg/kg, po administered 1 hr prior to carrageenan challenge measured after 3 hr by mercury plethysmographic analysis relative to control
[8] = system: Rattus norvegicus; experiment: Anti-inflammatory activity inRattus norvegicus albino (rat) assessed as reduction of cotton pellet-induced dry weight of granuloma at 5 mg/kg, po measured after 7 days relative to control

O=C1OC(c2ccccc2)=N/C1=C/c1nc2ccc(I)cc2c(=O)n1-c1ccc(Cl)cc1
Activity [1]: 60.9% | Activity [2]: 63.3% | Activity [3]: 49.6% | Activity [4]: 72.6%

CCOc1ccccc1-n1c(N)c(C#N)c(-c2nc3ccc(I)cc3c(=O)n2-c2ccc(F)cc2)c(C#N)c1=O
Activity [1]: 45.1% | Activity [2]: 53.1% | Activity [3]: 20.7% | Activity [4]: 52.2%

O=c1c2cc(I)ccc2nc(C2CC(c3ccccc3)=NN2)n1-c1ccc(Cl)cc1 (centres undefined)
Activity [1]: 55.4% | Activity [2]: 59.2% | Activity [3]: 50.4% | Activity [4]: 71.9%

O=C(/C=C/c1nc2ccc(I)cc2c(=O)n1-c1ccc(F)cc1)c1ccccc1
Activity [1]: 46.9% | Activity [2]: 54.1% | Activity [3]: 28.3% | Activity [4]: 41.8%

CC(=O)c1c(-c2nc3ccc(I)cc3c(=O)n2-c2ccc(Cl)cc2)[nH][nH]c1=O
Activity [1]: 47.9% | Activity [2]: 61.9% | Activity [3]: 48.3% | Activity [4]: 72.2%

Cc1c(/N=C/c2nc3ccc(I)cc3c(=O)n2-c2ccc(F)cc2)c(=O)n(-c2ccccc2)n1C
Activity [1]: 64.8% | Activity [2]: 65.6% | Activity [3]: 53.5% | Activity [4]: 73.5%

Cc1c(/N=C/c2nc3ccc(I)cc3c(=O)n2-c2ccc(Cl)cc2)c(=O)n(-c2ccccc2)n1C
Activity [1]: 53.7% | Activity [2]: 54.2% | Activity [3]: 47.4% | Activity [4]: 60.7%

O=C1NC(=S)S/C1=C/c1nc2ccc(I)cc2c(=O)n1-c1ccc(F)cc1
Activity [1]: 57.9% | Activity [2]: 61.3% | Activity [3]: 44.8% | Activity [4]: 67.3%

O=C(N/N=C/c1nc2ccc(I)cc2c(=O)n1-c1ccc(F)cc1)c1ccncc1
Activity [1]: 57.1% | Activity [2]: 64.3% | Activity [3]: 45.3% | Activity [4]: 66.7%

CCOc1ccccc1/N=C/c1nc2ccc(I)cc2c(=O)n1-c1ccc(F)cc1
Activity [1]: 39.3% | Activity [2]: 56.1% | Activity [3]: 38.9% | Activity [4]: 50.2%

Cc1c(N(C)CS(=O)(=O)[O-])c(=O)n(-c2ccccc2)n1C.[Na+] [DIPYRONE SODIUM]
Activity [5]: 82.9% | Activity [6]: 85.7%

COc1ccc2c(c1)c(CC(=O)O)c(C)n2C(=O)c1ccc(Cl)cc1 [INDOMETHACIN]
Activity [7]: 78.3% | Activity [8]: 75.2%
